# Experimental data reported in publication PMC10349806 (Nature Communications, 2023).
# “And” between values parts separate entries of the source, which are not always exact repeats. Identical values can stand only once.
# Tests used:
# PfCRT variant W280A = test: CQ uptake assay, oocytes expressing W280A; format: cell-based, Plasmodium falciparum
# Description: (§1) Site-directed mutagenesis of PfCRT^Dd2 was performed as described using the megaprimer method with overlap extension[21],[54]. The primer pairs used are listed in Supplementary Table 6. Please note that a codon-optimized and oocyte-adapted version of PfCRT^Dd2 was used[22] (Supplementary Fig. 16). The resulting DNA fragment was cloned into the SP64T expression vector and verified by sequencing.
# (§2) Oocytes were obtained as described previously. Briefly, adult (>2 years old) female X. laevis frogs (NASCO) were anesthetized in a cooled solution of ethyl 3-amino benzoate methanesulfonate (0.1%, w/v), followed by a surgical removal of parts of the ovary. The ovary lobes were carefully dissected and small pieces of oocytes were incubated in Ca^2+-free ND96 buffer (96 mM NaCl, 2 mM KCl, 1 mM MgCl2 buffered with 5 mM HEPES/NaOH, pH 7.5) supplemented with collagenase D (0.1%, w/v; Roche), BSA (0.5%, w/v), and 9 mm Na2HPO4 at 18 °C for 14-16 h while gentle shaking. After incubation, the oocytes were carefully washed several times with ND96 buffer (96 mM NaCl, 2 mM KCl, 1.8 mM CaCl2, 1 mM MgCl2 buffered with 5 mM HEPES/NaOH, pH 7.5) supplemented with 100 mg l^−1 gentamycin). Defolliculated and healthy-looking stage V-VI oocytes were manually selected for RNA microinjection. The RNA was generated as following: The codon-optimized sequences of PfCRT variants were cloned into the pSP64T expression vector. After vector linearization using the restriction endonucleases BamHI or SalI (New England Biolabs), transcription was performed using the in vitro SP6 mMessage mMachine Kit (Ambion)[34]. The obtained RNA was kept at −80 °C and diluted with nuclease-free water to a concentration of 0.6 μg μl^−1. Precision-bore glass capillary tubes (3.5-inch glass capillaries; Drummond Scientific Co.) were pulled on a vertical puller (P-87 Flaming/Brown micropipette puller, Sutter Instrument Co.), graduated, and placed on a microinjector (Nanoject II Auto-Nanoliter Injector, Drummond Scientific Co.). 50 nl of nuclease-free water alone (control oocytes) or 50 nl of 0.6 μg μl^−1 RNA were injected under stereomicroscopic control. Injected oocytes were incubated for 46–72 h at 18 °C with twice-daily buffer changes before usage in experiments.
# (§3) Drug uptake assays were performed as described previously[21],[22],[24],[34]. […] The direction of radio-labeled drug transport is here from the mostly acidic extracellular solution (pH 4.5 or 6.0, as indicated) into the oocyte cytosol (pH ∼ 7.2), which corresponds to the efflux of drug from the acidic digestive vacuole (pH 5.2) into the parasite cytoplasm (pH 7.2). The topology of PfCRT in the oolemma is such that both the N- and C-terminus face the extracellular milieu[3],[22]. In the parasite, the N- and C-terminus face the lumen of the digestive vacuole. CQ uptake kinetics were performed by incubating oocytes in ND96 buffer adjusted to a pH of 4.5, 5.0, 5.5, or 6.0 and supplemented with 50 nM [^3H]CQ and one of 7 different CQ concentrations (10 µM, 50 µM, 100 µM, 200 µM, 300 µM, 400 µM, 500 µM CQ). The reaction was stopped at the 60 min time point, which is in the linear uptake range[22],[34] (Supplementary Fig. 17). For determination of the amount of drug uptake for each oocyte, the reaction medium was removed and the oocytes were washed three times with 2 ml of ice-cold ND96 buffer. Each oocyte was individually transferred to a scintillation vial containing 5% sodium dodecyl sulfate (200 μl) for lysis. The radioactivity of each sample was measured using a liquid scintillation analyzer Tri-Carb 4910 TR (PerkinElmer). Oocytes that were injected with water instead of RNA were analyzed in parallel, representing the uptake of a drug by diffusion and/or endogenous permeation pathways. The resulting value represents the “background“ level of drug accumulation in oocytes (in-depth discussion in[22]). […]
# [1] = target: T1, PfCRT variant CD3 (F3A, E29A, F52A, Y238A, F340A, E399A, E407A) (Plasmodium falciparum, UniProt Q9N623, A220S/E29A/E399A/E407A/F340A/F3A/F52A/I356T/K76T/M74I/N326S/N75E/Q271E/R371I/Y238A); test: CQ uptake assay, oocytes expressing CD3; format: cell-based
# T1 sequence (Q9N623 1-424 F3A/E29A/F52A/M74I/N75E/K76T/A220S/Y238A/Q271E/N326S/F340A/I356T/R371I/E399A/E407A): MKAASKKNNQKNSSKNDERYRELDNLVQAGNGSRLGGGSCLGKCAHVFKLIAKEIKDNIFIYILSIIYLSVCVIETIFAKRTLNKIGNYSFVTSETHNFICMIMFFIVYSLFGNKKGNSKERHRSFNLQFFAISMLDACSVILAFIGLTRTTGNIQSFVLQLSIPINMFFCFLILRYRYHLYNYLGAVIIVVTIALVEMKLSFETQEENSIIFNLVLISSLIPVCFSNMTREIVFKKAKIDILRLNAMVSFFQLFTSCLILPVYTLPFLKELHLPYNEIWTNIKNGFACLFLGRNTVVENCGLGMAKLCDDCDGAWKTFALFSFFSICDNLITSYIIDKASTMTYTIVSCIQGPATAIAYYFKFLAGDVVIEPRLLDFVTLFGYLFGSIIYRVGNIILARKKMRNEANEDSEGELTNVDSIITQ
# Description: as §1, §2, §3
# PfCRT variant D329N = test: CQ uptake assay, oocytes expressing D329N; format: cell-based, Plasmodium falciparum
# Description: as §1, §2
# Drug uptake assays were performed as described previously[21],[22],[24],[34]. […] The direction of radio-labeled drug transport is here from the mostly acidic extracellular solution (pH 4.5 or 6.0, as indicated) into the oocyte cytosol (pH ∼ 7.2), which corresponds to the efflux of drug from the acidic digestive vacuole (pH 5.2) into the parasite cytoplasm (pH 7.2). The topology of PfCRT in the oolemma is such that both the N- and C-terminus face the extracellular milieu[3],[22]. In the parasite, the N- and C-terminus face the lumen of the digestive vacuole. CQ uptake kinetics were performed by incubating oocytes in ND96 buffer adjusted to a pH of 4.5, 5.0, 5.5, or 6.0 and supplemented with 50 nM [^3H]CQ and one of 7 different CQ concentrations (10 µM, 50 µM, 100 µM, 200 µM, 300 µM, 400 µM, 500 µM CQ). The reaction was stopped at the 60 min time point, which is in the linear uptake range[22],[34] (Supplementary Fig. 17). […] The radioactivity of each sample was measured using a liquid scintillation analyzer Tri-Carb 4910 TR (PerkinElmer). Oocytes that were injected with water instead of RNA were analyzed in parallel, representing the uptake of a drug by diffusion and/or endogenous permeation pathways. […]
# PfCRT variant E207Y = test: CQ uptake assay, oocytes expressing E207Y; format: cell-based, Plasmodium falciparum
# Description: as §1, §2, §3
# PfCRT^Dd2 = PfCRT^Dd2 (Plasmodium falciparum, UniProt Q9N623, A220S/I356T/K76T/M74I/N326S/N75E/Q271E/R371I); settings: cited from earlier work
# [2] = W280A, 50 µM CQ, 1 h, mean ± SEM
# [3] = pH 4.5, single replicates, Fig 1d left
# [4] = pH 6.0, single replicates, Fig 1d left
# [5] = D329N, 50 µM CQ, 1 h, mean ± SEM
# [6] = E207Y, 50 µM CQ, 1 h, mean ± SEM
# Sequence of PfCRT^Dd2 (Q9N623 whole entry A220S/I356T/K76T/M74I/N326S/N75E/Q271E/R371I): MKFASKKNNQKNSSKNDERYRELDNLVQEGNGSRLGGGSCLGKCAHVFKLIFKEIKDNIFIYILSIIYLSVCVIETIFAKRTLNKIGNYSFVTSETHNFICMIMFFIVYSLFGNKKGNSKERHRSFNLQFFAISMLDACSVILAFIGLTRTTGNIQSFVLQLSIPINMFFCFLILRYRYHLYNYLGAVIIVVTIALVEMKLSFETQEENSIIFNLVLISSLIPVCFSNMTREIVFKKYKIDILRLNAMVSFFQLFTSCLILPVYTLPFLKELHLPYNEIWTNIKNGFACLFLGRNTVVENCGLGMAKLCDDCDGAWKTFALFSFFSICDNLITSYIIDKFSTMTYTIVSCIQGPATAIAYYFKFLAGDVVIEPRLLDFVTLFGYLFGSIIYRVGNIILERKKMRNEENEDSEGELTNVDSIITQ
compound,measurement,setting,value
"CCN(CC)CCCC(C)Nc1ccnc2cc(Cl)ccc12 (stereo not shown) [CQ, chloroquine]",Activity at pH 4.5,PfCRT variant W280A; [2],0.92 ± 0.11 pmol h-1 oocyte-1
same,Activity at pH 6.0,PfCRT variant W280A; [2],2.64 ± 0.28 pmol h-1 oocyte-1
same,R-value,"PfCRT variant W280A; W280A, CQ transport at pH 4.5 / pH 6.0",0.35 ± 0.03
same,W280A transport activity pH 4.5,PfCRT variant W280A; [3],0.97 pmol oocyte-1 h-1 and 0.58 pmol oocyte-1 h-1 and 1.22 pmol oocyte-1 h-1 and 0.92 pmol oocyte-1 h-1
same,W280A R-value,"PfCRT variant W280A; pH 4.5 vs pH 6.0, Fig 1d left",0.31 and 0.28 and 0.38 and 0.44
same,W280A transport activity pH 6.0,PfCRT variant W280A; [4],3.17 pmol oocyte-1 h-1 and 2.06 pmol oocyte-1 h-1 and 3.24 pmol oocyte-1 h-1 and 2.09 pmol oocyte-1 h-1
same,Activity at pH 4.5,"[1]; CD3, 50 µM CQ, 1 h, mean ± SEM",1.78 ± 0.46 pmol h-1 oocyte-1
same,Activity at pH 6.0,"[1]; CD3, 50 µM CQ, 1 h, mean ± SEM",2.73 ± 0.57 pmol h-1 oocyte-1
same,R-value,"[1]; CD3, CQ transport at pH 4.5 / pH 6.0",0.62 ± 0.06
same,CD3 transport activity pH 4.5,[1]; [3],0.66 pmol oocyte-1 h-1 and 2.21 pmol oocyte-1 h-1 and 2.46 pmol oocyte-1 h-1
same,CD3 R-value,"[1]; pH 4.5 vs pH 6.0, Fig 1d left",0.47 and 0.72 and 0.65
same,CD3 transport activity pH 6.0,[1]; [4],1.39 pmol oocyte-1 h-1 and 3.05 pmol oocyte-1 h-1 and 3.76 pmol oocyte-1 h-1
same,Activity at pH 4.5,PfCRT variant D329N; [5],0.39 ± 0.14 pmol h-1 oocyte-1
same,Activity at pH 6.0,PfCRT variant D329N; [5],1.25 ± 0.32 pmol h-1 oocyte-1
same,R-value,"PfCRT variant D329N; D329N, CQ transport at pH 4.5 / pH 6.0",0.32 ± 0.07
same,D329N transport activity pH 4.5,PfCRT variant D329N; [3],0.14 pmol oocyte-1 h-1 and 0.71 pmol oocyte-1 h-1 and 0.33 pmol oocyte-1 h-1
same,D329N transport activity pH 6.0,PfCRT variant D329N; [4],0.49 pmol oocyte-1 h-1 and 1.49 pmol oocyte-1 h-1 and 1.76 pmol oocyte-1 h-1
same,Activity at pH 4.5,PfCRT variant E207Y; [6],1.70 ± 0.21 pmol h-1 oocyte-1
same,Activity at pH 6.0,PfCRT variant E207Y; [6],1.84 ± 0.21 pmol h-1 oocyte-1
same,R-value,"PfCRT variant E207Y; E207Y, CQ transport at pH 4.5 / pH 6.0",0.92 ± 0.06
same,E207Y transport activity pH 4.5,"PfCRT variant E207Y; pH 4.5, individual replicates, Fig 6b",2.50 pmol oocyte-1 h-1 and 1.56 pmol oocyte-1 h-1 and 1.84 pmol oocyte-1 h-1 and 1.50 pmol oocyte-1 h-1 and 1.10 pmol oocyte-1 h-1
same,E207Y transport activity pH 6.0,"PfCRT variant E207Y; pH 6.0, individual replicates, Fig 6b",2.64 pmol oocyte-1 h-1 and 1.70 pmol oocyte-1 h-1 and 1.99 pmol oocyte-1 h-1 and 1.61 pmol oocyte-1 h-1 and 1.24 pmol oocyte-1 h-1
same,E207Y R-value,PfCRT variant E207Y; ratio of activity pH 4.5 / pH 6.0,0.95 and 0.92 and 0.93 and 0.89
same,share of full transport velocity,PfCRT^Dd2; at the pH of the digestive vacuole of 5.2,60%
same,pH of maximal CQ transport activity,PfCRT^Dd2,~ 6.0 pH
